The values below come from ChEMBL document CHEMBL1201862, “PubChem BioAssay data set” (2004).

Assay in all cases: NCI tumour cell line growth inhibition, 48 h
The test system of assay [1] is A498.
Assay [2] concerns ACHN.
Assay [3] has as its system DU-145.
Assay [4] relates to HCT-15.
The subject of assay [5] is HL-60.
Assay [6] deals with HOP-92.
Assay [7] concerns KM12.
In assay [8] the test system is NCI/ADR-RES.
The test system of assay [9] is OVCAR-3.
Assay [10] concerns PC-3.
Assay [11] has as its system SF-295.
For assay [12], the system named is SK-MEL-5.
Assay [13] deals with SN12C.
In assay [14] the test system is SR.
For assay [15], the system named is SW-620.
For assay [16], the system named is U-251.
The subject of assay [17] is UACC-62.
Assay [18] relates to UO-31.
Assay [19] has as its system Malme-3M.
For assay [20], the system named is RXF 393.

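Values below derive from 48-hour exposures of cells grown in 96-well plates, with endpoints linearly interpolated between the two concentrations bracketing the appropriate inhibition level. Here, GI50 denotes the concentration required for 50% inhibition of growth.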 The source made the active and inactive calls. Cut-off read from the data, not from the text of the source: active = GI50 up to about 1.1 µM and inactive = higher. Bounds are passed on as bounds.

On to `COC(=O)Nc1cc(OCCCOC(C)=O)c2[nH]c(C(=O)OC)cc2c1C[C@H](O)CO`, for which the GI50 is > 100 µM (inactive) in assay [1]; > 100 µM (inactive) in assay [2]; > 100 µM (inactive) in assay [3]; over 100 µM in [4]; > 100 µM (inactive) in assay [5]; 11.1 µM (inactive) in assay [6]. Moreover, the GI50 in assay [7], in assay [8], in assay [9], in [10], in [11] and in assay [12] was > 100 µM (inactive) throughout. In addition, the GI50 in [13], in assay [14], in [15], in [16], in [17] and in assay [18] was > 100 µM (inactive) throughout.

Take `CC(C)(C)OC(=O)NC(Cc1ccc(O)cn1)C(=O)O` (stereo not drawn): the GI50 in [1] is > 100 µM (inactive); in [2] it was > 100 µM (inactive); in [3] it was > 100 µM (inactive); in assay [4], over 100 µM; in [5] it was > 100 µM (inactive); in assay [6] it was > 100 µM (inactive). The GI50 in [7], in [19], in assay [8], in assay [9], in assay [10] and in [20] was > 100 µM (inactive) throughout. Further, the GI50 in assay [11], in assay [12], in [13], in [14], in assay [15] and in assay [16] was > 100 µM (inactive) each time. Also, in assay [18], the GI50 was > 100 µM (inactive).

For `CC(C)(C)c1cc([N+](=O)[O-])cc([N+](=O)[O-])c1O` [DINOTERB], the GI50 in [2] was > 10 µM (inactive); in assay [3] it was 9.59 µM (inactive); in assay [4], over 10 µM; in [5], > 10 µM (inactive); in [6], 2.77 µM (inactive); in assay [7] it was > 10 µM (inactive). Moreover, the GI50 in assay [8] is > 10 µM (inactive); in [9], > 10 µM (inactive); in assay [10], 5.52 µM (inactive); in assay [20], > 10 µM (inactive); in assay [11] it was > 10 µM (inactive); in assay [12], 6.47 µM (inactive). In addition, the GI50 in [13], in assay [14], in assay [15], in [16], in [17] and in assay [18] was > 10 µM (inactive) in each case.

Regarding `COc1ccc(C(=O)O[C@@H]2CCN3CC[C@H](C)[C@H]23)cc1`, the GI50 in [1] is > 100 µM (inactive); in assay [2], > 100 µM (inactive); in [3], > 100 µM (inactive); in assay [4], over 100 µM; in assay [5] it was > 100 µM (inactive); in [6], > 100 µM (inactive). Besides, the GI50 was > 100 µM (inactive) in [7]; > 100 µM (inactive) in assay [8]; > 100 µM (inactive) in [9]; > 100 µM (inactive) in [10]; 45.9 µM (inactive) in assay [20]; > 100 µM (inactive) in [11]. Moreover, the GI50 in assay [12], in [13], in assay [14], in assay [15], in assay [16] and in assay [17] was > 100 µM (inactive) in each case. Also, the GI50 in assay [18] was 58.1 µM (inactive).

`COC(=O)CCCc1ccc2c(c1)CCC2`: the GI50 is > 100 µM (inactive) in [2]; > 100 µM (inactive) in [3]; over 100 µM in assay [4]; > 100 µM (inactive) in assay [5]; > 100 µM (inactive) in assay [6]; > 100 µM (inactive) in assay [7]. Further, the GI50 in assay [19], in assay [8], in assay [9], in assay [10], in assay [11] and in assay [12] was > 100 µM (inactive) each time. For the same compound, the GI50 in [13], in [14], in assay [15], in assay [16], in [17] and in assay [18] was > 100 µM (inactive) each time.

In the case of `Nc1ncc(Cc2nn3c(COc4ccc(Cl)cc4)nnc3s2)s1`, the GI50 in [2] was 0.0543 µM (active); in assay [3], > 100 µM (inactive); in assay [4] it was 0.748 µM; in assay [5], > 100 µM (inactive); in [6] it was > 100 µM (inactive); in assay [7], 7.45 µM (inactive). The GI50 in assay [19] was 3.61 µM (inactive); in assay [8], > 100 µM (inactive); in assay [9], > 100 µM (inactive); in assay [10] it was > 100 µM (inactive); in [20], > 100 µM (inactive); in assay [11], > 100 µM (inactive). Besides, the GI50 was > 100 µM (inactive) in [12]; > 100 µM (inactive) in assay [13]; 49.2 µM (inactive) in assay [14]; > 100 µM (inactive) in assay [15]; > 100 µM (inactive) in assay [17]; > 100 µM (inactive) in assay [18].

`NS(=O)(=O)c1ccc(/N=N/c2ccc(O)cc2)cc1`: the GI50 in [1] is > 100 µM (inactive); in assay [2], 31.8 µM (inactive); in assay [3], 49.7 µM (inactive); in [4], 59.2 µM; in assay [5], 30.1 µM (inactive); in assay [6], 75.3 µM (inactive). Also, the GI50 in assay [7] is 18.6 µM (inactive); in assay [19], > 100 µM (inactive); in assay [8] it was 26.8 µM (inactive); in assay [9] it was 66.4 µM (inactive); in assay [10] it was 66.7 µM (inactive); in assay [20], > 100 µM (inactive). The GI50 was 29.9 µM (inactive) in assay [11]; 28.8 µM (inactive) in assay [12]; 64 µM (inactive) in assay [13]; 7.13 µM (inactive) in assay [14]; 44.5 µM (inactive) in assay [15]; 61 µM (inactive) in [16]. Also, the GI50 in [18] was 12.6 µM (inactive).

Regarding `CN(C)CCNC(=O)c1cccc(C(=O)Nc2ccccc2)c1[N+](=O)[O-]`, the GI50 in assay [1] was > 100 µM (inactive); in assay [2] it was > 100 µM (inactive); in assay [3], > 100 µM (inactive); in assay [4] it was over 100 µM; in [5] it was > 100 µM (inactive); in assay [7], > 100 µM (inactive). The GI50 in [19] is 48.5 µM (inactive); in assay [8], > 100 µM (inactive); in assay [9], > 100 µM (inactive); in assay [10], > 100 µM (inactive); in assay [11] it was > 100 µM (inactive); in assay [12], > 100 µM (inactive). Moreover, the GI50 in assay [13], in assay [14], in assay [15], in assay [16], in assay [17] and in assay [18] was > 100 µM (inactive) in each case.

On to `C/C(=N\NC(=S)N1CCCCCCCCCCCC1)c1ccccn1`, for which the GI50 was 0.372 µM (active) in assay [1]; 0.215 µM (active) in [2]; 0.533 µM (active) in assay [3]; 0.216 µM in assay [4]; 0.0167 µM (active) in assay [5]; 0.111 µM (active) in assay [6]. Further, the GI50 in [7] was 0.102 µM (active); in [19] it was 0.281 µM (active); in assay [8], 0.778 µM (active); in assay [9], 0.0346 µM (active); in assay [10] it was 0.107 µM (active); in assay [20], 0.0769 µM (active). The GI50 in assay [11] was 0.324 µM (active); in assay [12] it was 0.2 µM (active); in [13], 0.238 µM (active); in [14], 0.0782 µM (active); in assay [15] it was 0.0652 µM (active); in assay [16], 0.0673 µM (active). Besides, the GI50 in assay [18] is 0.349 µM (active).

For the compound `CC(=O)Oc1ccc(-c2c(OC(C)=O)c(OC(C)=O)c(-c3ccc(OC(C)=O)c(OC(C)=O)c3)c(OC(C)=O)c2OC(C)=O)cc1`, the GI50 in assay [1] is 20.1 µM (inactive); in assay [2] it was 16.4 µM (inactive); in assay [3], 16.3 µM (inactive); in assay [4], 17.1 µM; in assay [5] it was 22.9 µM (inactive); in assay [7] it was 14.4 µM (inactive). In addition, the GI50 was 16.1 µM (inactive) in assay [19]; 39.7 µM (inactive) in assay [8]; 15.7 µM (inactive) in [9]; 15.9 µM (inactive) in assay [10]; 18.2 µM (inactive) in assay [20]; 6.03 µM (inactive) in assay [11]. The GI50 is 11.7 µM (inactive) in assay [12]; 18.8 µM (inactive) in assay [13]; 23.9 µM (inactive) in assay [14]; 14.9 µM (inactive) in assay [15]; 17.5 µM (inactive) in assay [16]; 17.8 µM (inactive) in assay [17]. Besides, in assay [18], the GI50 was 15.5 µM (inactive).

In the case of `O=[N+]([O-])/C(C(Cl)=C(Cl)Cl)=C1/OCCS1`, the GI50 in [1] is 20.3 µM (inactive); in assay [2] it was 20.4 µM (inactive); in assay [3], 42.2 µM (inactive); in [4] it was 21.3 µM; in assay [5] it was 16.9 µM (inactive); in assay [7], 31.9 µM (inactive). The GI50 was 17.7 µM (inactive) in assay [19]; 17.1 µM (inactive) in assay [8]; 14.4 µM (inactive) in assay [9]; 35.9 µM (inactive) in assay [10]; 19.3 µM (inactive) in assay [20]; 33.9 µM (inactive) in [11]. Besides, the GI50 in assay [12] was 19.1 µM (inactive); in [13] it was 23 µM (inactive); in [14], 30.1 µM (inactive); in [16], 36 µM (inactive); in assay [17], 25.5 µM (inactive); in assay [18], 23.1 µM (inactive).
